# According to US5169863A, “Hypersphyxia-causing methods” (K.K. Ueno Seiyaku Oyo Kenkyujo, priority 1988, dated 1992):
# Where two headings read alike, the source gives them in different places.
# Assays:
# [1] = changing rate of blood pressure and heart rate by intravenous injection in anesthetized rats; assay type: in vivo, Wister male rats; settings: for change in vivo at 1 mg/kg: Rattus norvegicus; for blood pressure effect (in words): Example 1 conclusion
# Procedure: (blood pressure, heart rate increasing action by intravenous injection) Wister male rats (8 weeks old) were used as test animals. The rats were applied to anesthesia by intraperitoneal administration with 1.25 g/kg of urethane. The blood pressure was determined by inserting a polyethylene tube into a femoral artery, which was connected with a pressure transducer. The heart rate was determined from R wave of electrocardiograms (ECG) induced by standard limb lead II with a tachometer. Each test compound was dissolved in ethanol and intravenously administered to rats in 1 mg/kg diluted with Ringer's solution just before use. The maximum concentration of ethanol was 2 percent. An ethanol-containing Ringer without any test compound was used as a control to confirm the influence of the ethanol in each experiment. Each changing rate (%) in the blood pressure and heart rate before and after administration was determined, and the average of 3-4 experiments was shown in Table 1. Changing rates of blood pressure and heart rate were determined in the same manner as described in Example 1 except that the test compounds 60, 61 and 62 were used in different concentrations instead of the test compounds 1-55.
# [2] = progressing a breath (change rate of breath rate); assay type: in vivo, Wister male rats; settings: Rattus norvegicus, iv, tail vein, rats
# Procedure: Wister male rats (8 weeks old) were applied to anesthesia by intraperitoneal administration with 1.25 g/kg of urethane. A pick-up for breath was fixed on a top of a rat's nose, and the breath curve was recorded on a polygraph while the breath rate was counted with a tachometer.
# Each test compound was dissolved in ethanol and administered to rats through a tale vein in 1 mg/kg as diluted with Ringer's solution just before use. The maximum concentration of ethanol was 2 percent. Ringers solution containing ethanol but not containing test compound was administered at every experiment as a control. The change rates (%) of the breath rate before and after administration were determined, and evaluated as progressing activity of breath.
# [3] = acute toxicity LD50; assay type: in vivo
# [4] = recovery of blood pressure and heart rate of rats in hemorrhage shock; assay type: in vivo, Wister male rats; settings: intravenous, dehematized rats
# Procedure: (Recovery of blood pressure and heart rate of rats in hemorrhage shock)
# Wister male rats (8 weeks old) were applied to anesthesia by subcutaneous injection with 1.5 g/kg of urethane. The blood pressure and heart rate were determined according to the same manner as in Example 1.
# The rats were kept for 60 minutes in a room after a blood corresponding to 1.5% of the weight was removed.
# 13,14-dihydro-6,15-diketo-19-methyl-PGE1 ethyl ester (compound number 15) was dissolved in Ringer's solution (0.1 ml), and the solution was intravenously administered into the above dehematized rat. Ringer's solution was administered to a control group.
# The recovery rates of the blood pressure and heart rate were obtained assuming the value at 60 minutes after dehematizing being 0% and the value before dehematizing being 100% respectively. In these FIGS. (1), (2) and (3) represent a dose of 1 mg/kg, dose of 0.5 mg/kg and control respectively.
# The same procedure as the above except that the compounds of (7), (18) and (22) were used instead of the compound (15) was applied, and the effects are observed, the results of which are also shown in Table 3.
# [5] = changes in blood flow rate in carotid, blood pressure and heart rate; assay type: in vivo, Wister male rats; settings: 1 mg/kg, femoral artery, 4 experiments
# Procedure: Wister male rats (9 weeks old) were used.
# The rats were applied to anesthesia by intraperitoneal administration with 1.25 g/kg of urethane. The blood flow rate in carotid was determined by a stromuhr. The blood pressure and heart rate were determined according to the same manner as in Example 1.
# 13,14-dihydro-6,15-diketo-19-methyl-PGE1 ethyl ester (sample number: 15) was dissolved in a small amount of ethanol, and then diluted with Ringer's solution more than 50 times. About 0.1 ml (1 mg drag/kg rat) of the diluted solution was administered to a rat through a polyethylene tube inserted into a femoral artery. The changes in blood flow rate (BF), blood pressure (BP), heart rate (HR) were observed, and the average of 4 experiments were shown in FIG. 1.
# [6] = Table 1, read-out: changing rate of blood pressure
# [7] = Table 1, read-out: changing rate of heart rate
# [8] = mouse, in vivo, IP, male mice, read-out: LD50
# [9] = mouse, in vivo, IV, male mice, read-out: LD50
# [10] = mouse, in vivo, PO, male mice, read-out: LD50
SMILES,"change in vivo at 1 mg/kg [1, 6] [%]","change in vivo at 1 mg/kg [1, 7] [%]",change in vivo at 1 mg/kg [2] [%],further results
"CCCCCC(=O)CC[C@H]1[C@H](O)CC(=O)[C@@H]1CCCCCCC(=O)OCC [Compound 2, 13,14-dihydro-15-keto-PGE1 ethyl ester]",1,20,47,"LD50 [3, 8]: > 1000 mg/kg"
"CCCCCC(=O)CC[C@H]1[C@H](O)CC(=O)[C@@H]1CC(=O)CCCCC(=O)OCC [Compound 7, 13,14-dihydro-6,15-diketo-PGE1 ethyl ester]",5,–,31,recovering of blood pressure % ([4]; 0.5 mg/kg): 38%; recovering of heart rate % ([4]; 0.5 mg/kg): 46%; recovering of blood pressure % ([4]; 1.0 mg/kg): 63%; recovering of heart rate % ([4]; 1.0 mg/kg): 62%
"CCOC(=O)CCCCC(=O)C[C@H]1C(=O)C[C@@H](O)[C@@H]1CCC(=O)CCCC(C)C [Compound 15, 13,14-dihydro-6,15-diketo-19-methyl-PGE1 ethyl ester]",12,19,26,"change in blood flow rate (BF) in carotid ([5]; FIG. 1a): extremely increase; change in blood pressure (BP) ([5]; FIG. 1b): extremely increase; change in heart rate (HR) ([5]; FIG. 1c): extremely increase; recovering of blood pressure % ([4]; 0.5 mg/kg): 39%; recovering of heart rate % ([4]; 0.5 mg/kg): 62%; recovering of blood pressure % ([4]; 1.0 mg/kg): 68%; recovering of heart rate % ([4]; 1.0 mg/kg): 100%; LD50 [3, 9]: > 300 mg/kg"
"CCCCCC(=O)CC[C@H]1[C@H](C)CC(=O)[C@@H]1CC(=O)CCCCC(=O)OCC [Compound 18, 13,14-dihydro-6,15-diketo-11-dehydroxy-11R-methyl-PGE1 ethyl ester]",18,17,28,recovering of blood pressure % ([4]; 0.5 mg/kg): 87%; recovering of heart rate % ([4]; 0.5 mg/kg): 100%; recovering of blood pressure % ([4]; 1.0 mg/kg): 119%; recovering of heart rate % ([4]; 1.0 mg/kg): 100%
"CCCCCC(=O)CC[C@H]1[C@H](O)CC(=O)[C@@H]1C/C=C\CCCC(=O)OC [Compound 21, 13,14-dihydro-15-keto-PGE2 methyl ester]",18,35,29,"LD50 [3, 9]: > 1000 mg/kg"
"CCCCCC(=O)CC[C@H]1[C@H](O)CC(=O)[C@@H]1C/C=C\CCCC(=O)OCC [Compound 22, 13,14-dihydro-15-keto-PGE2 ethyl ester]",5,11,28,"recovering of blood pressure % ([4]; 0.5 mg/kg): 32%; recovering of heart rate % ([4]; 0.5 mg/kg): 50%; recovering of blood pressure % ([4]; 1.0 mg/kg): 74%; recovering of heart rate % ([4]; 1.0 mg/kg): 63%; LD50 ([3]; IP, female mice): > 500 mg/kg; LD50 ([3]; PO, female mice): > 4000 mg/kg; LD50 ([3]; SC, female mice): > 1000 mg/kg; LD50 [3, 8]: > 500 mg/kg; LD50 [3, 10]: > 4000 mg/kg; LD50 ([3]; mouse, in vivo, SC, male mice, read-out: LD50): > 1000 mg/kg"
"CCCCC(F)C(=O)CC[C@H]1[C@H](O)CC(=O)[C@@H]1C/C=C\CCCC(=O)O (some centres unmarked) [Compound 36, 13,14-dihydro-15-keto-16R,S-fluoro-PGE2]",33,32,–,"LD50 [3, 10]: > 500 mg/kg"
"CCCCC(F)C(=O)CC[C@H]1[C@H](O)CC(=O)[C@@H]1C/C=C\CCCC(=O)OC (some centres unmarked) [Compound 37, 13,14-dihydro-15-keto-16R,S-fluoro-PGE2 methyl ester]",56,33,–,"LD50 [3, 10]: > 500 mg/kg"
"CCOC(=O)CCC/C=C\C[C@H]1C(=O)C[C@@H](O)[C@@H]1CCC(=O)CCCC(C)C [Compound 44, 13,14-dihydro-15-keto-19-methyl-PGE2 ethyl ester]",20,30,16,–
"COCCCCCC(=O)CC[C@H]1[C@H](O)CC(=O)[C@@H]1C/C=C\CCCC(=O)OC [Compound 45, 13,14-dihydro-15-keto-20-methoxy-PGE2 methyl ester]",2,4,10,–
"COCCCCCC(=O)CC[C@H]1[C@H](O)CC(=O)[C@@H]1C/C=C\CC=CC(=O)OC [Compound 46, 13,14-dihydro-15-keto-20-methoxy-Δ^2 -PGE2 methyl ester]",5,13,10,–
"COCCCCCC(=O)CC[C@H]1[C@H](O)CC(=O)[C@@H]1C/C=C\CC(C)CC(=O)OC (some centres unmarked) [Compound 47, 13,14-dihydro-15-keto-3R,S-methyl-20-methoxy-PGE2 methyl ester]",1,4,17,–
"CC(C)=CCCCCC(=O)CC[C@H]1[C@H](O)CC(=O)[C@@H]1C/C=C\CCCC(=O)O [Compound 49, 13,14-dihydro-15-keto-20-isopropylidene-PGE2]",2,3,18,–
"COC(=O)CCC/C=C\C[C@H]1C(=O)C[C@@H](O)[C@@H]1CCC(=O)CCCCC=C(C)C [Compound 50, 13,14-dihydro-15-keto-20-isopropylidene-PGE2 methyl ester]",2,5,18,–
"CCCCCCCC(=O)CC[C@H]1[C@H](O)CC(=O)[C@@H]1C/C=C\CCCC(=O)OC [Compound 51, 13,14-dihydro-15-keto-20-ethyl-PGE2 methyl ester]",1,14,49,–
"CCCCC[C@H](O)/C=C/[C@H]1[C@H](O)CC(=O)[C@@H]1C/C=C\CCCC(=O)O [Compound 57, PGE2, reference compound]",-39,14,55,blood pressure effect (in words) [1]: blood pressure decreasing effect
"CCCCC[C@H](O)/C=C/[C@H]1[C@H](O)CC(=O)[C@@H]1C/C=C\CCCC(=O)OC [Compound 58, PGE2 methyl ester, reference compound]",-11,33,35,blood pressure effect (in words) [1]: blood pressure decreasing effect
